Test systems include HCC-2998 colon; K-562 leukemia; OVCAR-8 ovarian; SF-268 CNS; SN12C renal; SR leukemia; SW-620 colon; UACC-257 melanoma; UACC-62 melanoma; UO-31 renal.
Holding throughout (experiment): NCI tumour cell line growth inhibition, 48 h

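Step 1: Grow cells in 96-well plates. Step 2: Expose to compound for 48 hours at 5 concentrations. Step 3: Interpolate endpoints linearly; if unreached, use highest concentration. Here, GI50 denotes the concentration required for 50% inhibition of growth. TGI: concentration producing complete growth inhibition.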

As for `COc1ccc(/C(=C2\O[C@@H]([C@H]3COC(C)(C)O3)[C@H]3OC(C)(C)O[C@@H]23)c2cc(OC)c(OC)c(OC)c2)cc1O`, the GI50 with HCC-2998 colon was 13.2 µM; in the test with K-562 leukemia, 3.22 µM; with OVCAR-8 ovarian, 5.27 µM; with SF-268 CNS, 6.95 µM; with SN12C renal, 5.62 µM; in the test with SR leukemia, 6.27 µM. Moreover, the GI50 in the test with SW-620 colon is 4.05 µM; with UACC-257 melanoma, over 100 µM; in the test on UACC-62 melanoma, 57.9 µM; in the test with UO-31 renal it was 7.53 µM. Besides, the TGI is over 100 µM in the test on HCC-2998 colon; over 100 µM in the test on K-562 leukemia; over 100 µM in the test on OVCAR-8 ovarian; 31.4 µM with SF-268 CNS; over 100 µM in the test with SN12C renal; over 100 µM in the test with SR leukemia. For the same molecule, the TGI is over 100 µM in the test with SW-620 colon, over 100 µM in the test on UACC-257 melanoma, over 100 µM in the test with UACC-62 melanoma and 77.8 µM in the test with UO-31 renal.
For `CCCCC(=O)OCC1OC(n2cnc3c(=S)nc[nH]c32)C(OC(=O)CCCC)C1OC(=O)CCCC` (stereo not given), the GI50 with HCC-2998 colon was 0.565 µM; in the test with K-562 leukemia it was 2.03 µM; with OVCAR-8 ovarian, 3.05 µM; in the test with SF-268 CNS, 3.96 µM; in the test with SN12C renal it was 2.78 µM; in the test with SR leukemia, 7.5 µM. For the same molecule, the GI50 is 1.51 µM in the test with SW-620 colon, 11.9 µM in the test with UACC-257 melanoma, 0.899 µM in the test with UACC-62 melanoma and 2.2 µM in the test with UO-31 renal. Besides, the TGI in the test on HCC-2998 colon was over 36.7 µM; in the test on K-562 leukemia, over 100 µM; in the test on OVCAR-8 ovarian, over 100 µM; with SF-268 CNS, over 100 µM; in the test with SN12C renal it was over 100 µM; in the test on SR leukemia it was over 100 µM. In addition, the TGI with SW-620 colon, in the test with UACC-257 melanoma, with UACC-62 melanoma and in the test with UO-31 renal was over 100 µM throughout.
`COc1cc(C2c3cc4c(cc3C(NCC(O)CO)C3COC(=O)[C@H]23)OCO4)cc(OC)c1OC` (stereo not given in full): the TGI in the test on HCC-2998 colon, in the test on K-562 leukemia, in the test with OVCAR-8 ovarian, in the test on SF-268 CNS, in the test with SN12C renal and in the test with SR leukemia was over 100 µM throughout. Moreover, the TGI with SW-620 colon, with UACC-257 melanoma, in the test on UACC-62 melanoma and with UO-31 renal was over 100 µM throughout.
Turning to `O=c1oc2ccc(F)cc2c(=O)n1-c1ccc(F)cc1F`, the GI50 in the test with HCC-2998 colon was 3.9 µM; with K-562 leukemia it was 3.11 µM; in the test with OVCAR-8 ovarian, 3.39 µM; in the test with SF-268 CNS, 3.34 µM; in the test with SN12C renal, 2.72 µM; in the test with SR leukemia, 3.69 µM. For the same molecule, the GI50 was 3.33 µM in the test with SW-620 colon, 2.29 µM in the test with UACC-257 melanoma, 2.02 µM in the test on UACC-62 melanoma and 1.93 µM in the test with UO-31 renal. In addition, the TGI in the test on HCC-2998 colon was 27.7 µM; in the test with K-562 leukemia, over 100 µM; in the test with OVCAR-8 ovarian, 91.6 µM; in the test with SF-268 CNS it was 52.1 µM; in the test with SN12C renal, 13.7 µM; in the test on SR leukemia, over 100 µM. In addition, the TGI with SW-620 colon turned out to be 80.6 µM; in the test on UACC-257 melanoma, 7.15 µM; in the test with UACC-62 melanoma, 7.52 µM; in the test on UO-31 renal, 6.56 µM.
On to `CC1CCC2(C(=O)O)CCC3(C)C(=CCC4C5(C)CC(O)C(O)C(C)(CO)C5C(O)CC43C)C2C1C` (stereo not given), for which the TGI in the test with HCC-2998 colon is over 100 µM; in the test with K-562 leukemia, over 100 µM; in the test with OVCAR-8 ovarian, 42.6 µM; in the test with SF-268 CNS it was over 87.2 µM; in the test on SN12C renal it was 25.8 µM; with SR leukemia it was over 63.1 µM. Also, the TGI in the test on SW-620 colon is over 100 µM; with UACC-257 melanoma, over 100 µM; in the test on UACC-62 melanoma it was 47.5 µM; in the test with UO-31 renal, over 100 µM.
As for `Cc1cc2c(cc1C)[n+](=O)c(C(=O)CC(=O)C(=O)Nc1c(C(C)C)cccc1C(C)C)c(C)n2[O-]`, the TGI in the test on HCC-2998 colon, with K-562 leukemia, in the test on OVCAR-8 ovarian, in the test on SF-268 CNS, in the test on SN12C renal and with SR leukemia was over 100 µM in each case. Also, the TGI in the test on SW-620 colon, in the test on UACC-257 melanoma, with UACC-62 melanoma and with UO-31 renal was over 100 µM in each case.
Regarding `COc1ccc2[nH]c3c(C)c4c(c(C)c3c2c1)CN(C)CC4`, the TGI in the test on HCC-2998 colon worked out at 31.4 µM; with K-562 leukemia, 25.8 µM; with OVCAR-8 ovarian, 25.8 µM; in the test on SF-268 CNS, 48.3 µM; with SN12C renal, 30.6 µM; with SR leukemia, 83.8 µM. The TGI is 15.5 µM in the test with SW-620 colon, 32.7 µM in the test on UACC-257 melanoma, 34.8 µM with UACC-62 melanoma and 30 µM in the test on UO-31 renal.
Turning to `Cc1nn(CN2CCN(C)CC2)c(=S)n1/N=C/c1cccc2ccccc12`, the GI50 in the test with HCC-2998 colon was 20.9 µM; in the test with K-562 leukemia it was 15.2 µM; in the test on OVCAR-8 ovarian it was 19.1 µM; in the test on SF-268 CNS, 24.5 µM; in the test on SN12C renal, 24.4 µM; in the test on SR leukemia it was 19 µM. Besides, the GI50 was 31.4 µM with SW-620 colon, 22.2 µM with UACC-257 melanoma, 17.5 µM in the test on UACC-62 melanoma and 22 µM in the test on UO-31 renal. Moreover, the TGI was 39 µM in the test with HCC-2998 colon; 37.5 µM in the test on K-562 leukemia; 37 µM with OVCAR-8 ovarian; 68.2 µM in the test with SF-268 CNS; 39.2 µM in the test with SN12C renal; 38.5 µM with SR leukemia. The TGI in the test with SW-620 colon was over 100 µM; in the test on UACC-257 melanoma, 44.6 µM; with UACC-62 melanoma it was 33.9 µM; with UO-31 renal it was 54.4 µM.
For `O=C(c1ccco1)c1nc2ccc(C(F)(F)F)cc2[n+]([O-])c1C(F)(F)F`, the GI50 in the test on HCC-2998 colon is 85.6 µM; in the test on K-562 leukemia, 31.3 µM; with OVCAR-8 ovarian, 50 µM; in the test on SF-268 CNS, 34.3 µM; with SN12C renal it was over 100 µM; in the test with SR leukemia it was 20.8 µM. Moreover, the GI50 was over 100 µM with SW-620 colon, 26.5 µM in the test on UACC-257 melanoma, 43.1 µM in the test with UACC-62 melanoma and over 100 µM with UO-31 renal. Further, the TGI with HCC-2998 colon is over 100 µM; in the test on K-562 leukemia, over 100 µM; in the test with OVCAR-8 ovarian it was over 100 µM; in the test with SF-268 CNS, over 100 µM; in the test on SN12C renal, over 100 µM; in the test with SR leukemia it was 57.4 µM. The TGI was over 100 µM in the test on SW-620 colon, 99.4 µM in the test on UACC-257 melanoma, over 100 µM in the test with UACC-62 melanoma and over 100 µM with UO-31 renal.

The values above are taken from PubChem BioAssay (NCI).
